The test concerns Huh7 psiCHECK-miR122 Renilla luciferase reporter, 48 h. Kind of test: suppression of miR-122 activity, Renilla luciferase sensor – cell-based, Huh7 psiCHECK-miR122, cherry-pick, dose response (AID 652053).

SMILES strings stand for the structures.

We go through 86 molecules from PubChem BioAssay AID652053 (Broad Institute, 2013).

Turning to `COc1ccc(S(=O)(=O)N(C)C[C@H]2Oc3ccc(N(C)C)cc3C(=O)N([C@H](C)CO)C[C@@H]2C)cc1`, the AC40 is 9.52 µM.

With `C[C@H](CO)N1C[C@H](C)[C@H](CN(C)Cc2ccc(C(=O)Nc3ccccc3N)cc2)Oc2ccc(NS(=O)(=O)c3ccc(Cl)cc3)cc2CC1=O`, the AC40 is 7.89 µM.

With `C[C@H](CO)N1C[C@H](C)[C@@H](CN(C)Cc2ccc(C(F)(F)F)cc2)Oc2c(NC(=O)c3cnccn3)cccc2C1=O`, the AC40 was 1.43 µM.

For `O=C(C1CCCCC1)N1[C@H](CO)[C@@H]2c3ccccc3N(S(=O)(=O)c3ccccc3)C[C@@H]21`, the AC40 is 3.09 µM.

On to `O=S(=O)(/N=C(/Nc1ccc(Cl)c(S(=O)(=O)Nc2ccccc2Cl)c1)c1ccc(F)cc1)c1ccccc1`, for which the AC40 was 26.8 µM.

With `Cc1cc(C)c(S(=O)(=O)NCCn2ccc3ccccc32)c(C)c1`, the AC40 is 1.93 µM.

Turning to `CCCC(=O)Nc1nc2ccc(S(=O)(=O)N3CCCCC3)cc2s1`, the AC40 was 8.84 µM.

For `Cc1cccc(C)c1NC(=S)NC(C)CCc1ccccc1` (stereo unspecified), the AC40 is 17 µM.

As to `CCOc1ccc(NS(=O)(=O)c2cc(C)c(C)cc2C)cc1`, the AC40 was 2.04 µM.

For the molecule `O=S(=O)(N/N=C\c1cccn1-c1ccccc1)c1ccc2ccccc2c1`, the AC40 was 0.263 µM.

`COc1ccccc1C(=O)Nc1ccc2c(c1)C(=O)N(C)[C@H]1CC[C@@H](CC(=O)NCc3ccc(Cl)c(Cl)c3)O[C@@H]1CO2`: the AC40 was 2.85 µM.

Regarding `C[C@H](CO)N1C[C@H](C)[C@H](CN(C)CC2CCCCC2)Oc2c(NC(=O)C3CCOCC3)cccc2C1=O`, the AC40 is 1.95 µM.

Turning to `C[C@@H]1CN([C@@H](C)CO)C(=O)c2cccc(NC(=O)Nc3ccc(F)cc3)c2O[C@H]1CN(C)Cc1ccc(C(F)(F)F)cc1`, the AC40 is 3.97 µM.

Regarding `COc1cc(NS(=O)(=O)c2csc(C(N)=O)c2)cc(OC)c1`, the AC40 is 1.51 µM.

Consider `COc1cccc(C(=O)N2C[C@H]3[C@@H](c4ccccc42)[C@@H](CO)N3C(=O)c2ccc(F)cc2)c1`, for which the AC40 is 2.16 µM.

`Cc1c(C)c(C)c(S(=O)(=O)NCCc2ccccn2)c(C)c1C`: the AC40 is 1.69 µM.

Turning to `COc1ccc(NC(=O)CCNS(=O)(=O)c2cc(Br)ccc2Br)cc1S(N)(=O)=O`, the AC40 is 2.1 µM.

With `O=S(=O)(NCCc1ccncc1)c1ccc(Br)cc1`, the AC40 is 1.15 µM.

Take `COC(=O)c1ccc(C)c(NS(=O)(=O)c2ccc(OC)c(OC)c2)c1`: the AC40 is 21.5 µM.

As to `COc1ccc(NP(=O)(Oc2ccc(Cl)cc2)Oc2ccc(Cl)cc2)cc1OC`, the AC40 was 7.43 µM.

`COc1cc(C)c(S(=O)(=O)Nc2ccccc2F)cc1C`: the AC40 was 3.14 µM.

As for `COc1cccc(S(=O)(=O)Nc2ccc(C(O)(C(F)(F)F)C(F)(F)F)cc2)c1`, the AC40 is 4.24 µM.

For the molecule `Cc1nn(C)c(C)c1S(=O)(=O)NCc1cccs1`, the AC40 was 13.9 µM.

With `C[C@H]1CN([C@@H](C)CO)C(=O)c2cccc(NC(=O)C3CCOCC3)c2O[C@@H]1CN(C)Cc1ccc(C(F)(F)F)cc1`, the AC40 was 1.51 µM.

For the molecule `COc1ccc(NS(=O)(=O)c2ccc(N3CCOCC3)c(NC(=O)c3cccc(F)c3)c2)cc1`, the AC40 is 8.96 µM.

On to `COc1ccccc1NS(=O)(=O)c1cc(NC(=O)c2sccc2C)ccc1N1CCCC1`, for which the AC40 was 1.12 µM.

For `O=S(=O)(Nc1ncnc2c1oc1ccccc12)c1ccc(Cl)s1`, the AC40 was 18.8 µM.

For the molecule `C[C@@H]1CN([C@H](C)CO)C(=O)c2cccc(NC(=O)C3CCCCC3)c2O[C@@H]1CN(C)Cc1ccc(C(=O)Nc2ccccc2N)cc1`, the AC40 is 6.1 µM.

As to `COc1ccccc1NS(=O)(=O)c1cc(NC(=O)Nc2ccc(Cl)cc2Cl)ccc1N1CCCCC1`, the AC40 is 1.49 µM.

Take `C[C@H](CO)N1C[C@H](C)[C@H](CN(C)CC2CCCCC2)Oc2c(NC(=O)c3cnccn3)cccc2C1=O`: the AC40 was 1.12 µM.

Take `CCc1nnc(NC(=O)c2ccc(NS(=O)(=O)c3ccccc3)cc2)s1`: the AC40 was 2.68 µM.

For the molecule `Cc1ccc(NS(=O)(=O)c2cc(C(=O)N3CCN(C)CC3)ccc2C)cc1C`, the AC40 is 25.1 µM.

Regarding `CCCNC(=O)NC[C@H]1[C@@H](c2ccc(C3=CCCC3)cc2)[C@@H](CO)N1C(=O)CC`, the AC40 was 10.2 µM.

In the case of `O=C(c1ccc(NS(=O)(=O)c2ccc3c(c2)OCCO3)cc1)N1CCCCC1`, the AC40 was 14.8 µM.

As for `O=S(=O)(Nc1ccc(C(O)(C(F)(F)F)C(F)(F)F)cc1)c1cccc2ccccc12`, the AC40 was 1.45 µM.

Turning to `OC(c1ccc(Cl)c(Cl)c1)c1ncc(-c2ccccc2F)[nH]1` (stereo unspecified), the AC40 was 3.49 µM.

As for `C[C@H]1CN([C@@H](C)CO)C(=O)c2cccc(NC(=O)C3CC3)c2O[C@@H]1CN(C)Cc1ccc(C(F)(F)F)cc1`, the AC40 was 0.42 µM.

Turning to `Cc1ccc(C)c(S(=O)(=O)NC2CCS(=O)(=O)C2)c1` (stereo unspecified), the AC40 is 8.66 µM.

Take `O=C(C[C@@H]1C[C@H]2c3cc(NS(=O)(=O)c4ccc(F)cc4)ccc3O[C@H]2[C@H](CO)O1)NCc1ccc(-c2ccccc2)cc1`: the AC40 is 5.24 µM.

On to `O=S(=O)(NCc1cccs1)c1cccc(S(=O)(=O)N2CCCCC2)c1`, for which the AC40 is 6.72 µM.

Turning to `Cc1ccc(C(=O)NCCSc2ccc(Cl)cc2)cc1S(=O)(=O)Nc1ccccc1`, the AC40 was 4.3 µM.

For `COc1ccc(NC(=O)Nc2ccc3c(c2)C(=O)N([C@H](C)CO)C[C@@H](C)[C@@H](CN(C)S(=O)(=O)c2ccc(OC)cc2)O3)cc1`, the AC40 was 1.21 µM.

Regarding `CCCCCNS(=O)(=O)c1cc2c3c(c1)CCC(=O)N3CCC2`, the AC40 was 4.75 µM.

`CC(C)Oc1ccc(C(=O)Nc2ccc(Cl)c(S(=O)(=O)Nc3ccc(Cl)cc3)c2)cc1`: the AC40 was 0.559 µM.

Consider `COc1ccc(S(=O)(=O)Nc2cccc3c2O[C@H](CN(C)Cc2ccc(Cl)c(Cl)c2)[C@@H](C)CN([C@H](C)CO)C3=O)cc1`, for which the AC40 is 4.25 µM.

With `CC(OC(=O)c1cccc(S(=O)(=O)Nc2cccc(C(F)(F)F)c2)c1)C(=O)Nc1ccc2c(c1)OCCO2` (stereo unspecified), the AC40 was 3.57 µM.

With `COc1ccc(S(=O)(=O)NCc2ccccn2)cc1NC(=O)c1ccc(C)cc1`, the AC40 is 7.81 µM.

For the molecule `O=S(=O)(NCCOCC(F)(F)C(F)F)c1ccc2oc3ccccc3c2c1`, the AC40 is 15.3 µM.

`O=S(=O)(NC1CCCCC1)c1cccc(-c2nnc(-c3ccccc3)o2)c1`: the AC40 is 2.16 µM.

Turning to `Cc1cc(S(=O)(=O)Nc2ccc3cn[nH]c3c2)c(C)cc1Cl`, the AC40 was 2.11 µM.

Regarding `O=S(=O)(Nc1ccc(Cl)cc1)c1cccc2cccnc12`, the AC40 is 4.21 µM.

Regarding `CCc1ccc(-c2cc(C)no2)cc1S(=O)(=O)NC(C)Cc1ccco1` (stereo unspecified), the AC40 is less than 0.26 µM.

With `Cc1ccc(S(=O)(=O)Nc2cccc(S(=O)(=O)N3CCCC3)c2)cc1C`, the AC40 was 1.03 µM.

As to `CSc1cccc(NS(=O)(=O)c2cc(Br)cnc2N)c1`, the AC40 is 2.5 µM.

As for `COc1ccc(OC)c(S(=O)(=O)NCc2ccccc2)c1`, the AC40 was 0.781 µM.

Consider `O=S(=O)(NC1CCCCC1)c1ccc(-c2csnn2)s1`, for which the AC40 is 3.8 µM.

Take `Cc1cc(NS(=O)(=O)c2ccccc2)cc(Cl)c1O`: the AC40 was 21.1 µM.

With `Cc1ccc(NS(=O)(=O)c2cccc(C(=O)N(C)Cc3cccs3)c2)cc1`, the AC40 is 3.04 µM.

With `Cc1ccc(NS(=O)(=O)c2ccc3c(c2)n(C)c(=O)n3C)cc1C`, the AC40 was 3.8 µM.

On to `CC(C)n1nc(C(=O)Nc2cccc(S(=O)(=O)NCc3ccco3)c2)c2ccccc2c1=O`, for which the AC40 is 2.61 µM.

With `CC(=O)N1CCSc2ccc(S(=O)(=O)NCCc3ccc(Cl)cc3)cc21`, the AC40 is 4.57 µM.

For the molecule `Cc1ccc(S(=O)(=O)Nc2cccc(-c3cn4ccsc4n3)c2)cc1`, the AC40 is 1.81 µM.

Regarding `CCCCCCNS(=O)(=O)c1ccc(OC)c(OC)c1`, the AC40 is 4.67 µM.

Consider `O=C(Cc1ccccc1)N1C[C@@H]2[C@H](c3ccccc31)[C@H](CO)N2C(=O)Nc1ccc(F)cc1`, for which the AC40 was 4.71 µM.

For the molecule `C[C@H](CO)N1C[C@H](C)[C@@H](CN(C)Cc2ccc3c(c2)OCO3)Oc2c(NC(=O)c3ccncc3)cccc2C1=O`, the AC40 is 13.1 µM.

Consider `CCOc1cc(C)c(S(=O)(=O)NCCCn2ccnc2)cc1C`, for which the AC40 is 5.88 µM.

Regarding `C[C@H](CO)N1C[C@H](C)[C@H](CN(C)Cc2ccc(C(=O)Nc3ccccc3N)cc2)Oc2ccc(NS(=O)(=O)c3cn(C)cn3)cc2CC1=O`, the AC40 is 27 µM.

For the molecule `CCOc1ccccc1N(CC(=O)Nc1cccnc1)S(=O)(=O)c1ccc(C)cc1`, the AC40 was 8.03 µM.

`O=S(=O)(Nc1cccc(-c2cn3ccsc3n2)c1)c1ccc(F)cc1`: the AC40 was 6.48 µM.

`Cc1ccc(S(=O)(=O)N2CCC3(CC2)OCCN3S(=O)(=O)c2cccs2)cc1`: the AC40 was 3.63 µM.

Take `CNC(=O)NC(=O)C(C)OC(=O)c1ccc(Cl)c(S(=O)(=O)Nc2ccc(F)cc2)c1` (stereo unspecified): the AC40 was 7.64 µM.

Take `COC(=O)c1c(NC(=O)c2ccc(C)c(S(=O)(=O)Nc3ccccc3C)c2)sc2c1CCCC2`: the AC40 was less than 0.26 µM.

As for `COc1ccc(NS(=O)(=O)c2cc(Br)cc3c2N(C(C)=O)CC3)cc1`, the AC40 is 2.67 µM.

In the case of `Cc1ccc(C(=O)NCc2ccco2)cc1S(=O)(=O)Nc1cccc(C)c1C`, the AC40 is 6.29 µM.

Regarding `COc1ccc(S(=O)(=O)N(C)C[C@H]2Oc3cc(C#CC4CCCC4)ccc3S(=O)(=O)N([C@H](C)CO)C[C@@H]2C)cc1`, the AC40 was 1.58 µM.

`Cc1ccc(S(=O)(=O)n2nc(C)c(Br)c2C)c(C)c1C`: the AC40 is 12 µM.

In the case of `Cc1cc(C)c(C)c(S(=O)(=O)Nc2ccc3cn[nH]c3c2)c1C`, the AC40 is 0.694 µM.

Take `CC1CCCC(NS(=O)(=O)c2ccc3c(c2)OCCO3)C1C` (stereo unspecified): the AC40 is 3.1 µM.

On to `COc1ccc(S(=O)(=O)NC2CC3CCC2C3)cc1Cl` (stereo unspecified), for which the AC40 is 4.66 µM.

For `O=S(=O)(NCCC1=CCCCC1)c1ccccc1Cl`, the AC40 is 3.9 µM.

Turning to `Cc1cc(Cl)c(S(=O)(=O)NCc2ccccc2)cc1OCC(N)=O`, the AC40 is 8.54 µM.

As for `CCOC(=O)c1c(C)[nH]c(C)c1S(=O)(=O)NCCc1ccco1`, the AC40 is 2.96 µM.

`CCN(CC)c1ccc(NC(=O)COc2ccccc2C#N)cc1S(=O)(=O)Nc1ccccc1OC`: the AC40 was 0.325 µM.

On to `COc1cccc(CNS(=O)(=O)c2cc(-c3cc(C)no3)ccc2C(C)C)c1`, for which the AC40 is 5.07 µM.

As to `CC(C)C(=O)Nc1ccc2c(c1)C(=O)N(C)[C@H]1CC[C@H](CC(=O)NCc3cccc(F)c3)O[C@H]1CO2`, the AC40 was 17.7 µM.

With `Cc1ccc(S(=O)(=O)N(CC(=O)N2CCC(C)CC2)c2cccc(C)c2)cc1`, the AC40 was 12 µM.
